# Laboratory results: patent US9643941B2, “2,2′-tandem dithiazole compound, preparation method therefor, and use thereof” (SHANGHAI INSTITUTE OF MATERIA MEDICA, CHINESE ACADEMY OF …, priority 2014, dated 2017)
# Where two headings read alike, the source gives them in different places.
# Experiments:
# [1] = target: Human source HDAC4 (Homo sapiens, UniProt P56524); test: Inhibition activity against histone deacetylase 4 (fluorescence, AMC substrate); assay type: biochemical
# Procedure: The test was carried out to show the inhibition activity of the compounds in this patent application against human source histone deacetylases 1, 3, 4, 6.
# (§1) 2. Materials for the Test: • Human source HDAC1, HDAC3, HDAC4, and HDAC6 were obtained by the Group of Doctor LI Jia in Shanghai Institute of Materia Medica by using the baculovirus expression system and purifying. • Substrate: HDAC1, 3, 4: Ac-Lys-Tyr-Lys (Ac)-AMC; • HDAC6: Boc-lys (Ac)-AMC • ∠All were purchased from GL Biochem (Shanghai) Ltd.;
# (§2) Enzyme activity was measured in 96-well or 384-well flat-bottom microplates using fluorescence detection. […] The initial reaction speed was calculated by detecting the changes of the fluorescence signal over time.
# (§3) Sample treatment: The sample was dissolved in DMSO and stored at low temperature.
# (§4) Illustration about the data processing and the result: In the first screening, the activity of the sample was tested at a single concentration, e.g., 20 μg/ml. […] The bottom and top of the fitting curve were set to 0 and 100 for the most inhibitor screening models.
# [2] = test system: human source multiple myeloma cell line 8266; test: Anti-tumor activity test in cellular level (MTT); settings: for IC50: Homo sapiens, Multiple myeloma cell, 72 h, read-out: IC50 on human multiple myeloma cell line 8266
# [3] = test system: EAE mouse model; test: Drug efficacy in EAE mouse model; assay type: in vivo
# Procedure: The activity of the compound as a histone deacetylase inhibitor in the treatment of EAE was tested by drug efficacy tests for compounds in the EAE mouse model.
# Antigen MOG35-55 ([…]) was added with complete Freund's adjuvant (comprising 5 mg/ml of inactivated Mycobacterium tuberculosis) to be emulsified. 8-week aged female C57BL/6 mouse was injected subcutaneously with 200 μg of emulsified MOG35-55 antigen, while 200 ng of pertussis toxin was injected into each mouse. The day of induction was day 0. On day 2, 200 ng of pertussis toxin was further injected to each mouse. The symptoms of the mice were scored and recorded daily. The scoring rules were as follows,
# 0 point: normal, asymptomatic
# 3 points: the mouse was paralysis of hind limbs, and the mouse was loss of mobility.
# 4 points: the mouse was weakness or paralysis of forelimbs.
# 5 points: the mouse was dead or dying
# 2. Materials for the Test: • EAE mouse: Shanghai Slac Laboratory Animal Co., Ltd.; • Antigen MOG35˜55: GL Biochem (Shanghai) Ltd.;
# The drug was directly added with the CMC—Na, ground and ultrasonic suspended into a uniform state. The dose was 10 mg/kg, twice a day by intragastric administration. The control group was directly administrated with PBS.
# [4] = target: T1, Human source HDAC6 (Homo sapiens, UniProt Q9UBN7); test: Inhibition activity against histone deacetylase 6 (fluorescence, AMC substrate); assay type: biochemical; settings: for IC50: IC50 ± SD/SE
# T1 sequence (Q9UBN7 1-1215): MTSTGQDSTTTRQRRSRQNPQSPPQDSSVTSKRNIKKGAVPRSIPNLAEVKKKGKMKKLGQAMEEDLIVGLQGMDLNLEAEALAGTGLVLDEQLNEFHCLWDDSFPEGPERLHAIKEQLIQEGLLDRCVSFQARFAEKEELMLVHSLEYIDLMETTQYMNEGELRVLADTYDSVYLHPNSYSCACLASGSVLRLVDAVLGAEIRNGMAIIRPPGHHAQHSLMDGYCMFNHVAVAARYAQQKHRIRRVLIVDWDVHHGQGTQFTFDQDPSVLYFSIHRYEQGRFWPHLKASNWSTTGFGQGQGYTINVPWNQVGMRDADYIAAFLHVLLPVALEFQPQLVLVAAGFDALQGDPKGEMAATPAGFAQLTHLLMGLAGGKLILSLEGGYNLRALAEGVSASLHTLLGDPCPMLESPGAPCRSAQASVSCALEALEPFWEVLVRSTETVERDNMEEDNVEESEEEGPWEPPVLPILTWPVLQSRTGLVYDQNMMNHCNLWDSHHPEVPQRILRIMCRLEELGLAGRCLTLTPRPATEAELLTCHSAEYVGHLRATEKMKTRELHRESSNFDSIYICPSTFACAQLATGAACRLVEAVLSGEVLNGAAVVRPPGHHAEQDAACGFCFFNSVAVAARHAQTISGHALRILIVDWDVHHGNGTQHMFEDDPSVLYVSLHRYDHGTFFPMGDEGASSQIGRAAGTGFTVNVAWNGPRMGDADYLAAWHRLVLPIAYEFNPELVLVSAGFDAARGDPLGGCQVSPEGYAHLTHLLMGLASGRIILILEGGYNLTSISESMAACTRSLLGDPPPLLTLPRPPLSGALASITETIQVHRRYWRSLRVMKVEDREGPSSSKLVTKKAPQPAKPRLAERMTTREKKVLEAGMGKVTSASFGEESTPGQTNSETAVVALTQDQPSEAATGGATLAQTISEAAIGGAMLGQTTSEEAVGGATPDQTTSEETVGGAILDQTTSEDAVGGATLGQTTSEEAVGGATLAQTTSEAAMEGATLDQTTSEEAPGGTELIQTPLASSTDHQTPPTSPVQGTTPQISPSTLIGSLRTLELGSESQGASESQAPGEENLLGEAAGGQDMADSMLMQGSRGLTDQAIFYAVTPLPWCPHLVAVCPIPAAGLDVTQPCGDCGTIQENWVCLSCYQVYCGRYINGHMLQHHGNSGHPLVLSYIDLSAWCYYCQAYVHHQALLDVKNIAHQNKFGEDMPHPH
# Procedure: as §1, §2, §3, §4
# [5] = target: Human source HDAC3 (Homo sapiens, UniProt O15379); test: Inhibition activity against histone deacetylase 3 (fluorescence, AMC substrate); assay type: biochemical; settings: IC50 ± SD/SE
# Procedure: as §1, §2, §3, §4
# [6] = target: Human source HDAC1 (Homo sapiens, UniProt Q13547); test: Inhibition activity against histone deacetylase 1 (fluorescence, AMC substrate); assay type: biochemical; settings: IC50 ± SD/SE
# Procedure: as §1, §2, §3, §4
# [7] = IC50 ± SD/SE, read-out: IC50 HDAC4
# Chain of Human source HDAC1 (Q13547 whole entry): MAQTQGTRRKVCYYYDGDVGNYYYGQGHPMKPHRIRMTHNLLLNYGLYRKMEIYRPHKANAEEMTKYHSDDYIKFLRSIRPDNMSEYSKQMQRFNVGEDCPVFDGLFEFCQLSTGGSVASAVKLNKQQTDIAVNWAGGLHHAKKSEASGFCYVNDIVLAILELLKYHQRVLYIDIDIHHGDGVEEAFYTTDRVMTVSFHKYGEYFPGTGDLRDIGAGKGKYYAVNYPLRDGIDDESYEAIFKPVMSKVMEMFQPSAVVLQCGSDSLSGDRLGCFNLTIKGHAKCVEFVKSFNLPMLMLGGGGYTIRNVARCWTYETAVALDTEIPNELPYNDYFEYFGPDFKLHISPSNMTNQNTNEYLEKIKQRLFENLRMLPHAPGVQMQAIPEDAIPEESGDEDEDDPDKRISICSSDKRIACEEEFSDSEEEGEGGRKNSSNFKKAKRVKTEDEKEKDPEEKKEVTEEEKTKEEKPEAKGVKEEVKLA
# Chain of Human source HDAC4 (P56524 whole entry): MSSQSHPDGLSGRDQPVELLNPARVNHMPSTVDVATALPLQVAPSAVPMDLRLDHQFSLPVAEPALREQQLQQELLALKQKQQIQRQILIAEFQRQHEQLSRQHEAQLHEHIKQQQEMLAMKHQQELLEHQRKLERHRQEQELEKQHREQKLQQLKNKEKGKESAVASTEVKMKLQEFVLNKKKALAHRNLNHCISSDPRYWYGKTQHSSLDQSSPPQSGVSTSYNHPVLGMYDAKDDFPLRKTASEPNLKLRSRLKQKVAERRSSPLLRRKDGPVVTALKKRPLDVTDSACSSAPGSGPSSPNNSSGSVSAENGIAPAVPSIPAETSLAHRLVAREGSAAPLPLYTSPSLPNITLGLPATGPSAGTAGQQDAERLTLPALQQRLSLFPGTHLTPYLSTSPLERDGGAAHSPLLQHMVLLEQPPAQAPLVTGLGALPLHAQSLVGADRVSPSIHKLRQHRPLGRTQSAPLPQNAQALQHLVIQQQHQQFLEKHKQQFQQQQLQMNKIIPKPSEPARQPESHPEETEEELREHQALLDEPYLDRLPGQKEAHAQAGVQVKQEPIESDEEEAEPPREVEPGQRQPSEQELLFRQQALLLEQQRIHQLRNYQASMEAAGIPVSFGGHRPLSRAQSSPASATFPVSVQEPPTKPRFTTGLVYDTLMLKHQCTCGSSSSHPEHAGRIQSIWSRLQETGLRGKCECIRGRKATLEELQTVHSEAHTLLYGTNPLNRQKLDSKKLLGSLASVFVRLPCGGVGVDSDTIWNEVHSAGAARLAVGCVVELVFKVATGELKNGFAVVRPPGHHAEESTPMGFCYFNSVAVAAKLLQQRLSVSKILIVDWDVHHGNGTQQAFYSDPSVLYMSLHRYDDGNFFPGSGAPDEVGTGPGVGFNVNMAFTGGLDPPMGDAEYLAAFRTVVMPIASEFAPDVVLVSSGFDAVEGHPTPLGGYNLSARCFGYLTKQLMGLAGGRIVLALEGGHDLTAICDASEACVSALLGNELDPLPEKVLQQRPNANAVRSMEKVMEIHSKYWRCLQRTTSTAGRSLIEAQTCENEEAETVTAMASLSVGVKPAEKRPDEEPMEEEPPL
# Chain of Human source HDAC3 (O15379 whole entry): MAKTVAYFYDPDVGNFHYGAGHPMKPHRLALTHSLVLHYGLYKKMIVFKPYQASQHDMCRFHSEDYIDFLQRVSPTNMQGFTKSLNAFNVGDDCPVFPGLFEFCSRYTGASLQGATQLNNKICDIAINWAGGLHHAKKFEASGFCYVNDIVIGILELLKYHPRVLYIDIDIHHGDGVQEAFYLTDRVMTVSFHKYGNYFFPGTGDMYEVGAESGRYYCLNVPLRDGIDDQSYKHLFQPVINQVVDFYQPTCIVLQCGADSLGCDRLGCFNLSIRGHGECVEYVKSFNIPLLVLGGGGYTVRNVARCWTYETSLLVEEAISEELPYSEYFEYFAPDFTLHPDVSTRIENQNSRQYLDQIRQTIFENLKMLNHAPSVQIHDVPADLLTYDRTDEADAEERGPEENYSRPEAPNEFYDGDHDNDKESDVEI
# Chain of Human source HDAC3 (Q9Y618 395-489 partner limits assumed): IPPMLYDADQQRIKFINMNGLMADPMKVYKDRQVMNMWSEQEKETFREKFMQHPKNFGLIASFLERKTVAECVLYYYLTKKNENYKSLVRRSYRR
"IC50 [1, 7] [nM]",IC50 ([1]; read-out: IC50 against HDAC4) [nM],IC50 [2] [nM],activity against HDAC6 on changing trifluoroacetyl ketone to hydrazone [4],IC50 [4] [nM],IC50 [5] [nM],IC50 [6] [nM],Compound,"incidence of EAE model mice ([3]; 10 mg/kg twice a day, intragastric)","therapeutic effect on the clinical symptoms of EAE model mice ([3]; 10 mg/kg twice a day, intragastric, clinical score (the FIGURE))","Incidence number/total number ([3]; EAE mice, 10 mg/kg twice a day, intragastric)",disease severity versus solvent control group ([3]; P<0.01),increase of activity at the cellular level compared to CFH367-C ([2]; cell line 8266)
20,~20,333 ± 11,–,–,–,–,O=C(NCCCCC(=O)C(F)(F)F)c1nc(-c2nccs2)sc1C1CC1 [HD 1],Effectively Reduce the Incidence,good therapeutic effect,3/6,significantly lower,–
20,–,240 ± 21,–,–,–,–,O=C(NCCCCC(=O)C(F)(F)F)c1nc(-c2nc3c(s2)CCCC3)sc1C1CC1 [HD 3],–,–,–,–,–
40,–,457 ± 12,–,–,–,–,CC(C)Cc1sc(-c2nccs2)nc1C(=O)NCCCCC(=O)C(F)(F)F [HD 6],–,–,–,–,–
160 ± 10,–,2140 ± 22,can be improved,80 ± 10,350,180 ± 30,CC(=O)N/N=C(\CCCCNC(=O)c1nc(-c2nccs2)sc1C1CC1)C(F)(F)F [HD 37],–,–,–,–,–
450 ± 30,–,117,can be improved,350 ± 10,400 ± 10,500 ± 50,O=C(CO)N/N=C(/CCCCNC(=O)c1nc(-c2nccs2)sc1C1CC1)C(F)(F)F [HD 46],–,–,–,–,about 10 times
40,–,–,–,40,50,50,CCc1sc(-c2nccs2)nc1C(=O)NCCCCC(=O)C(F)(F)F [HD 53],–,–,–,–,–
70,–,–,–,60,60,70 ± 10,O=C(NCCCCC(=O)C(F)(F)F)c1nc(-c2nccs2)sc1Cc1ccccc1 [HD 54],–,–,–,–,–
70,–,–,–,20,–,–,Cc1cnc(-c2nc(C(=O)NCCCCC(=O)C(F)(F)F)c(C3CC3)s2)s1 [HD 55],–,–,–,–,–
